The test system of data set [1] is Human glioblastoma cell line U251. The following applies: cited from earlier work.
In data set [2] the test system is Human breast cancer cell line MX-1. The data set can be described thus: MX-1 xenograft implanted SC in mice. In kind it is in vivo. The conditions noted are these: IP once per day for 5 days; for MX-1 T-C: 4-HOOI 90, IFOS 40, IPM 40 mg/kg/day.
Procedure: (§2) Human breast cancer cell lines MX-1 and ZR75-1 were implanted subcutaneously (SC). Human glioblastoma cell line U251 was implanted intracranially (IC) and P388 CPA-resistant murine leukemia cell line was injected intraperitoneally (IP). For IC implanted tumor cells, treatment was begun 5-7 days post-inoculation. For SC tumors, treatment was begun when the tumor was palpable (5-10 days post-inoculation). Mice were treated with the indicated dose of drug intraperitoneally once per day for 5 days.
Data set [3] has as its system P388 CPA-resistant murine leukemia cell line. The data set can be described thus: P388/CPA leukemia injected IP in mice. The format is in vivo. The following applies: IP once per day for 5 days, 4-HOOI 90, IFOS 40, IPM 40 mg/kg/day.
Procedure: as §2
The subject of a further data set is humans. The following applies: cited from earlier work.
For data set [4] the following is noted: for AUC values for acrolein (trapezoidal rule): 0-120, IV CPA 250, IFOS 400, 4-HOOI 100 mg/kg.
Procedure: Half of each plasma sample was lyophilized to collect ACR in a dry ice/methanol-cooled trap. […] For chloroacetaldehyde, the other half of the plasma sample was treated directly with the above trapping agent and the same procedure was used (6 mins) compared with synthetic controls.
For another data set, the system named is 9 L rat glioma cells. The data set can be described thus: Activity in vitro against 9L rat glioma cells in culture. In kind it is cell-based. The following applies: for IC50: dose range 0.1-1.00 μg/ml. As for the experimental part: The IC50 for each compound and also ifosfamide was determined (Table 3).
The subject of another data set is Rat glioma 9 L cells. The data set can be described thus: 9L rat glioma implanted subcutaneously in rats. The conditions noted are these: doses as in Table 7. As for the experimental part: Rat glioma 9 L cells (10^6 cells) were implanted subcutaneously in female Hsd:SD rats. […] Temozolomide (TMZ) was administered orally three times, four days apart. The rats were followed for 54 days.

Data set [5] relates to Sprague Dawley female rats. The data set can be described thus: Rat neurobehavioral modified Morris water maze and pathology. In kind it is in vivo. The following applies: for Pathology five days later (gross, confirmed by histology) / Memory and learning time intervals: single IP dose: IFOS 400, 4-HOOI 200, 4-HOOI.Lys 300 mg/kg; for Memory and learning time intervals: 1, 2, 3, 20 hours post-dosing. Here is the method: Rat Dosing: Neuro-oncology studies with 4-HOOI were conducted to evaluate the product as compared to ifosfamide in a rat neurobehavioral modified Morris water maze. Ifosfamide produces coma and neuro-edema in high doses. […] Timings (six at each time) were measured at 1, 2, 3, and 20 hours post-dosing to monitor learning and memory. […] Histological examinations confirmed the gross observations.

Data set [6] can be described thus: Stability profile of bulk 4-HOOI vs. 4-HOOI.Lys (HPLC, NMR).
Data set [7] concerns Human breast cancer cell line ZR75-1. The data set can be described thus: ZR-75-1 xenograft implanted SC in mice. The format is in vivo. The conditions noted are these: IP once per day for 5 days, 4-HOOI 90, IFOS 40 mg/kg/day.
Procedure: as §2
In data set [8] the test system is NCI-H69 Small cell lung carcinoma. The data set can be described thus: NCI-H69 xenograft (sc). The conditions noted are these: sc implant; intraperitoneal treatment; MTD. The format is in vivo, human. Here is the method:
(§1) 4-HOOI was tested against a number of additional solid tumor xenografts and leukemias.

Data set [9] relates to NCI-H23 Non-small cell lung carcinoma. The data set can be described thus: NCI-H23 xenograft (sc). In kind it is in vivo, human. The conditions noted are these: sc implant; intraperitoneal treatment; MTD. As for the experimental part: as §1
In general terms: A xenograft is tissue or cells of one species grown in another, often human tumour cells in immunodeficient mice.

A further data set concerns OVCAR-3 Ovarian. The data set can be described thus: OVCAR-3 xenograft (sc). In kind it is in vivo, human. The conditions noted are these: sc implant; intraperitoneal treatment; MTD. Here is the method: as §1
The next data set relates to SAOS-2 Osteosarcoma. The data set can be described thus: SAOS-2 xenograft (sc). In kind it is in vivo, human. The following applies: sc implant; intraperitoneal treatment; MTD. Here is the method: as §1
For the next data set, the system named is SK-MEL-31 Melanoma. The data set can be described thus: SK-MEL-31 xenograft (sc). The conditions noted are these: sc implant; intraperitoneal treatment; MTD. The format is in vivo, human. As for the experimental part: as §1
For another data set, the system named is mice. The data set can be described thus: Mouse IV dosing toxicology. In kind it is in vivo. Here is the method: Specific emphasis was placed on documenting potential toxicities associated with IV administered peroxides, namely convulsions, hemolysis, arterial gas emboli-pulmonary damage, and neurological pathology.
Ranges of dosing were 60-400 mg/kg. […] Animals were monitored for 14 days post treatment.

Data set [10] concerns Human glioblastoma cell line U251. The data set can be described thus: U251 glioblastoma implanted intracranially in mice. The conditions noted are these: in vivo.
Procedure: as §2

Where two headings read alike, the source gives them in different places.

By IC50 is commonly meant the midpoint of a concentration-inhibition curve.

Regarding `COc1nc(C(Cl)(Cl)Cl)c(Cl)c(OC(=O)O[C@H]2CC[C@@]3(C)C(=CC[C@H]4[C@@H]5CC[C@H]([C@H](C)CCCC(C)C)[C@@]5(C)CC[C@@H]43)C2)c1Cl` [DM-CHOC-PEN, 4-demethylcholesteryloxycarbonylpenclomedine], the “LTS in U251 glioblastoma” value in [1] (Morgan et al. 2009) is recorded as 52 % LTS.
For `O=P(O)(NCCCl)NCCCl` [IPM, isophosphoramide mustard], the “MX-1 T-C” value in data set [2] amounted to 2.1 days. The “P388/CPA (% ILS)” value in [3] is reported as “+85 % ILS”. Further, the “Dose limiting toxicity in humans” value in the data set with humans is given as “renal tubular necrosis was dose limiting”.
Turning to `O=P1(N(CCCl)CCCl)NCCCO1` (stereo not shown) [CPA, cyclophosphamide], the “AUC values for acrolein (trapezoidal rule)” value in data set [4] is 1520 mg·min/mL.
On to `NCCCCC(N)C(=O)O.O=P1(NCCCl)OCCC(OO)N1CCCl` (stereo not shown) [4-HOOI•Lys], for which the Notes entry in the data set on 9 L rat glioma cells was “Stabilized form prevented”. In addition, the IC50 in the data set on 9 L rat glioma cells is over 1.0 µg/mL. In the data set on Rat glioma 9 L cells (SC in female Hsd:SD rats, followed 54 days), the “CR (animals)” value is listed as 9/9. The Hematuria entry with Rat glioma 9 L cells (rats bearing 9L glioma) was “No hematuria”. Further, the Weight loss result in the data set with Rat glioma 9 L cells (rats bearing 9L glioma) is on record as “No weight loss”. In data set [5], the “Pathology five days later (gross, confirmed by histology)” value is recorded as “did not reveal hemorrhagic cystitis, renal tubular necrosis, or bone marrow depletion”. In addition, the “Memory and learning time intervals” value in data set [5] is “no significant differences”. The NMR entry in [6] (Time 0), in [6] (Time 2 months), in [6] (Time 4 months), in data set [6] (Time 6.5 months) and in data set [6] (Time 10 months) was “Stable” each time.
With `O=NN(CCCl)C(=O)NCCCl` [BCNU, bis-chloronitrosourea], the ILS in data set [1] (gold standard for the treatment of gliomas) is on record as 72 % ILS.
With `O=P1(NCCCl)OCCCN1CCCl` (stereo not shown) [IFOS, ifosfamide], the Notes result in the data set with 9 L rat glioma cells is “Inactive without”. Besides, the IC50 in the data set with 9 L rat glioma cells (Glioma cell, read-out: IC50) was over 1 µg/mL. Besides, the “MX-1 LTS (long term survivors)” value in data set [2] (4-HOOI 90, IFOS 40 mg/kg/day) is listed as “(No LTS)”. The “MX-1 T-C” value in [2] amounted to 8.6 days. In data set [7], the “ZR-75-1 CR (complete response)” value is listed as “(17% CR)” and the “ZR-75-1 T-C” value was over 43.8 days. Also, the “P388/CPA (% ILS)” value in [3] is on record as “+42 % ILS”. In addition, the “T-C (Days Delay), NCI-H69” value in [8] is 6.2 days. Moreover, the “T-C (Days Delay), NCI-H23” value in data set [9] was 13.7 days. Moreover, in the data set with OVCAR-3 Ovarian, the “T-C (Days Delay), OVCAR-3” value was 12.4 days. In addition, in the data set with SAOS-2 Osteosarcoma, the “T-C (Days Delay), SAOS-2” value was over 61.9 days. Further, the “T-C (Days Delay), SK-MEL-31” value in the data set on SK-MEL-31 Melanoma came out at 10.9 days. In the data set with Rat glioma 9 L cells (rats bearing 9L glioma), the Hematuria result is “observed”. Moreover, in the data set with mice, the “Highest tolerated single IV dose” value is recorded as 400 mg/kg. Also, in data set [5] (IFOS 400 mg/kg single IP dose), the Clinical signs entry is “shakes and tremors”. Besides, the Bone marrow evaluations result in data set [5] (IFOS 400 mg/kg single IP dose, five days later) was “pancytopenia”. In [5], the “Pathology five days later (gross, confirmed by histology)” value is given as “hemorrhagic cystitis with gross bleeding”; the “Memory and learning time intervals” value is “normal learning behavioral patterns”. Moreover, in data set [4], the “AUC values for acrolein (trapezoidal rule)” value turned out to be 960 mg·min/mL. The Urinary hemorrhagic cystitis result in [4] (mice) is recorded as “the pathology occurred at day 5 post dosing”. In data set [10], the “U251 CR (complete response, animals)” value is reported as “(0/5 CR)” and the “U251 T-C” value was determined as 50 days.

The record behind these values is patent US8361992B2 (Dekk-Tec, Inc., priority 2009, dated 2013).
